The source of these data is patent US11826347B2, “Anesthetic composition and method of anesthetizing the eye” (priority 2018, dated 2023).

Data set [1] concerns Dutch Belted rabbits. It counts as in vivo. To be noted: articaine 4%, 8%, or 12%, bilateral topical, two drops of 35 μL/eye, observed 24 hours. The procedure: Two subparts of one study were conducted on Dutch Belted rabbits, namely, an ocular tolerability study followed by an ocular biodistribution study.
(§1) In the ocular tolerability study, a total of twelve male Dutch Belted rabbits divided randomly into four groups, were administered a placebo of phosphate buffered saline (PBS) or articaine at 4%, 8%, or 12% respectively. […] Ophthalmic examinations were performed on dose tolerability animals (Groups 1 through 4) predose and at 5, 10, and 20 minutes, and at 1, 2, 4, and 24 hours post the second eye drop administration in each eye using the modified Hackett-McDonald Scoring System. Following the modified Hackett-McDonald Scoring, local anesthetic effect was monitored in each eye by Cochet-Bonnet esthesiometry predose and at approximately 5, 10, and 20 minutes, and 1 hour following administration of the second eye drop in each eye. […] Topical ocular administration of articaine provided an anesthetic effect out to 20 minutes postdose with no notable tolerability issues.

The subject of data set [2] is Dutch Belted rabbits. The experiment in a line: Local anesthetic effect by Cochet-Bonnet esthesiometry. It is filed as in vivo. To be noted: topical ocular administration, two drops of 35 μL/eye. The procedure:
as §1

For data set [3] the following is noted: rabbit, in vivo.
Description: (§2) In the ocular biodistribution study, after a minimum of 72 hours following the completion of the ocular tolerability study, the twelve rabbits were re-assigned to Group 5 for the ocular biodistribution study. Group 6 was added and consisted of 3 naïve rabbits. Group 6 was included to evaluate the potential carryover effect of articaine over a 72 hour period post treatment. Group 5 and 6 animals were administered articaine at 8% and 12% w/v, respectively. Doses were administered via bilateral topical administration (two drops of 35 μL/eye). Group 5 animals were sacrificed at 10 minutes, and 1, 4 and 8 hours post treatment (N=3 at each time point). Group 6 rabbits were sacrificed at 24, 48 and 72 hours post treatment (N=1 at each time point). Just prior to sacrifice blood samples were collected from each animal. Animals were then euthanized and aqueous humor, conjunctivas (palpebral and bulbar), lens, cornea, vitreous humor, iris-ciliary body [ICB], optic nerve, lacrimal gland, retina, and choroid were collected.
(§3) The objectives of this study were to determine the tolerability of placebo and Articaine HCl ophthalmic solutions at concentrations of 4, 8, and 12% (w/v) following topical eye drop administration, and to determine the ocular pharmacokinetics and biodistribution of articaine and articainic acid following topical eye drop administration of 8% Articaine HCl ophthalmic solution.
For data set [4] the following is noted: in vivo; cited from earlier work.
The next data set in a line: in vivo. The note with it: male, Dutch Belted, rabbit, topical or ocular.
A short description of data set [5]: Ocular biodistribution / pharmacokinetics study.
Description: as §2, §3

Counter-ions that a name gives are not always drawn. Bounds are passed on as bounds.

Description for in vivo: as §2, §3

In general, Tmax refers to the time from dosing to the highest level. A word on the Cmax: it is the peak of the concentration-time curve. Consider `CCCNC(C)C(=O)Nc1c(C)csc1C(=O)OC` (centres unmarked) [articaine, 4-methyl-3 (2-[propylamino]proprioamido)-2-thiophenecarboxylic acid, methyl ester hydrochloride], for which, in the data set on Dutch Belted rabbits [1], the “tolerability / treatment related adverse effects” value was “well tolerated in all animals at concentrations up to 12% w/v”. In addition, the “anesthetic effect, time postdose” value in the data set on Dutch Belted rabbits [2] was 20 min. Besides, the “systemic exposure, as indicated by plasma AUC” value in data set [3] is listed as “minimal”. In data set [4], the “excreted as the metabolites” value is 89%, the protein binding entry is given as “highly protein bound” and the renally excreted unchanged result is “Five to ten”. Also, in “in vivo”, the time of peak concentration (Tmax) came to 10 min. Further, the peak level in “in vivo” (Plasma Cmax) (Cmax) was 457 ng/mL.

Take Articainic acid: the “residual concentrations in ocular matrices” value in data set [5] (12% articaine topical, 24, 48, and 72 hours postdose) is “Low residual concentrations”. For the same compound, the “ratio of AUC0-last articainic acid over AUC0-last articaine” value in data set [5] (all other matrices) is less than 0.7; in data set [5] (cornea) it was “approximately 2”; in data set [5] (plasma) it was “approximately 2”. In data set [5] (plasma), the “T1/2 (half-life)” value was “approximately 1.5 hours”. For the same compound, the “Plasma Cmax” value in data set [5] (plasma, 8% articaine topical, two drops of 35 μL/eye) came out at 217 ng/mL.
